In patent US9556113B2, “Combination uses of dichloroacetate and oxamate, and their prodrugs, for cancer treatment” (The South Dakota Board of Regents, priority 2014, dated 2017):
pKi: −log10 of the molar value. Where a name gives a salt, the structure may show the parent alone.

Columns and labels:
[1] = tested on: HPV+E6E7 Ras tumor (E6/E7/Ras MOEs cells); test: Tumor response to cisplatin/radiation therapy (CRT), HPV positive HNSCC mouse model; type: in vivo, C57Bl/6 mice; settings: oxamate 15 mg/mouse; for tumor's response to CRT (tumor volume, FIG. 18): DCA 6 mg/mouse, daily i.p. on weekdays from day 11, with CRT
Procedure: FIG. 7 illustrates the effects of DCA plus oxamate on tumor growth (A) or on survival (B) with HPV+ model of HNSCC in wild-type C57Bl/6 mice. All mice received 3 rounds of cisplatin (0.132 mg/mouse) plus radiation (8 Gy/mouse) treatment (Tx) at weekly intervals starting […] after tumor initiation. Mice receiving DCA (6 mg/mouse) plus oxamate (15 mg/mouse) were treated every weekday, starting with the first chemoradiation treatment by i.p. injection.
FIG. 8 illustrates a comparison of prodrugs to DCA plus oxamate on tumor growth (A) or on survival (B) with HPV+ model of HNSCC in wild-type C57Bl/6 mice. All mice received 3 rounds of CRT [cisplatin (0.132 mg/mouse) plus radiation (8 Gy/mouse) treatment (Tx) at weekly intervals starting 11 days after tumor initiation]. Mice receiving DCA (6 mg/mouse) plus oxamate (2.2 mg/mouse) were treated every weekday starting with the first chemoradiation treatment by i.p. injection. Mice treated with AT-N4-001 or AT-N4-002 prodrugs (7.6 mg/mouse) were treated on the same schedule as mice treated with DCA+oxamate.
FIG. 18. The effects of DCA, oxamate, DCA plus oxamate on the responses of HPV+E6E7 Ras tumor to CRT. One million E6/E7/Ras MOEs cells were injected subcutaneously into the rear leg of wild-type C57Bl/6 mice. After 11 days, a treatment with DCA (6 mg/mouse) and oxamate (15 mg/mouse) were injected daily by i.p. on weekdays for the remainder of the experiment. All mice received three rounds of treatment with CRT (0.132 mg/mouse cisplatin and 8 Gy radiation, weekly starting at day 11). Tumor volume is mm^3.
FIG. 19 depicts the effects of DCA plus oxamate vs the effects of prodrug 1 or prodrug 2 on the responses of HPV+E6E7 Ras tumor to CRT. Tumors were initiated by injecting 0.5×10^6 E6/E7/Ras MOEs cells. After 11 days, a treatment with DCA (6 mg/mouse) plus oxamate (2 mg/mouse), or prodrug 1 (7.6 mg/mouse), or prodrug 2 (7.6 mg/mouse) was initiated daily by i.p. on weekdays. The doses of DCA and oxamate were equal molar equivalents as would be released from the prodrugs. All mice received three rounds of treatment with CRT (0.132 mg/mouse cisplatin and 8 Gy radiation, weekly starting at day 11). Tumor volume is in mm^3.
The effects of various treatments on tumor responses were carried out by examining whether the treatment could improve tumor's response to CRT with a HPV positive HNSCCs mouse model. CRT is a standard treatment for HPV-positive HNSCC in the clinic (46). […] Applicants also used this model to investigate the effects of lactate on CRT-induced immune-mediated cancer clearance (46) and DCA's effect on the tumor's response to CRT (unpublished data). The literature reported dosages of DCA and oxamate were used (6,23,52,53)(41).
To study the effects of the prodrugs on tumor growth in vivo, C57Bl/6 immune-competent mice implanted with E6/E7/Ras MOEs cells were used as described previously (46). All experiments were performed in accordance with institutional and national guidelines and regulations with the protocol approved by the Animal Care and Use Committee at Sanford Research. Briefly, 1×10^6 tumor HPV+HNSCC cells were injected into the right subcutaneous flank of syngeneic male C57Bl/6 mice. Eleven days after tumor initiation, treatment was initiated daily on weekdays by i.p. injection of vehicle, DCA, Oxamate, DCA+oxamate, prodrug 1, or prodrug 2. All mice received three rounds of treatment with cisplatin/radiation therapy (CRT: 0.132 mg/mouse cisplatin and 8 Gy radiation, weekly starting at day 11). Tumor dimensions were measured weekly to monitor growth. Mice with tumors reaching a volume of 3000 mm^3 or becoming substantially emaciated were euthanized.
To study the effects of the new prodrugs on tumor growth in vivo, C57Bl/6 immune-competent mice were used. Tumors were established on the right flank of the leg. After 11 days, treatment was initiated with daily i.p. injection of vehicle, AT-N4-001, or AT-N4-002. […]

E6E7/Ras MTE cells = test: Clonogenic growth (colony formation); type: cell-based, mouse; settings: 5 mM prodrugs, 10 mM DCA, 7 days, vs DMSO
Procedure: FIG. 4 illustrates prodrugs AT-N4-001 and AT-N4-002 inhibiting cell proliferation and colony growth of E6E7/Ras MTE cells. (A) E6E7/Ras MTE cultures were treated with DMSO (Con), AT-N4-001, or AT-N4-[…] 002 at the indicated concentration for one day. Live cell number was then determined using a trypan blue exclusion assay. (B) E6E7/Ras MTE cells were seeded on 100-mm plate at 500 cells per plate (in triplicate). After one day, cells were treated as indicated and allowed to grow until colonies of untreated controls reached 50 or more cells (7 days). Plates were stained with Coomassie blue to visualize the colonies. (C) Quantification of colonies described in B. Colonies with more than 15 cells were counted.
E6E7/Ras MTE cells are mouse tonsilar epithelial cells that have been transformed by HPV oncogenes E6 and E7 together with activated ras. They form tumors in mice and are a model of human HPV+HNSCC. These cells were treated in culture with either vehicle control (DMSO), AT-N4-001, or AT-N4-002 at concentrations of 1 mM, 2.5 mM and 5 mM for one day. Live cells were counted using a hemocytometer (FIG. 4A). […] The effects of the compounds on clonogenic growth of the cells were also tested. E6/E7/Ras MTE cells were seeded in 100 mm plates in triplicate, and the next day cells were treated with either vehicle control DMSO, 5 mM AT-N4-001, 5 mM AT-N4-002, or 10 mM DCA. DCA was used at a twice the concentration because the prodrugs each carry two molecules of DCA.

E6E7/Ras cells = test: Lactate secretion into culture medium, enzyme based assay; type: cell-based, mouse; settings: 5 mM each, 4 hours
Procedure: FIG. 5 illustrates the reduction of lactate secretion in cultured cells by prodrugs AT-N4-001 and AT-N4-002. E6E7Ras cells were plated in 100 mm dishes and grown to confluence. The medium was changed to bicarbonate-free DMEM-10% FBS with or without the indicated treatments (5 mM each). Four hours later the medium was collected and lactate was measured using an enzyme based assay from Eton Bioscience. Con indicates the control samples for the DCA and Oxamate samples. DMSO indicates the vehicle only control for the AT-N4-001 and AT-N4-002 prodrug samples.
AT-N4-001 and AT-N4-002 should each release two molecules of DCA and one molecule of oxamate. Both DCA and oxamate are expected to reduce cellular lactate production. Therefore, we examined the changes in lactate after treatment of E6E7/Ras cells with the prodrugs. E6E7/Ras cells were seeded into 100 mm dishes and the next day treated with 5 mM AT-N4-001, 5 mM AT-N4-002, 5 mM DCA plus 5 mM oxamate, or 5 mM DCA alone. Culture medium was collected after 4 hours of treatment and lactate levels were determined (FIG. 5). […] To confirm the effects of these compounds on lactate production, the extra cellular acidification rate (ECAR) was measured using a Seahorse XF24 Extracellular Flux analyzer. Since lactate is transported from cells together with a proton, acidification of the culture medium (ECAR) is an estimate of lactate production and the glycolytic rate of cells. In the experiment shown in FIG. 6A, ECAR measurements were initiated in the absence of glucose. At point A, glucose was added and ECAR measurements continued. […] At point B, additional glucose along with vehicle (control), DCA plus oxamate, or AT-N4-002 was added. […] This is shown by a bar graph in FIG. 6B.

PDK = settings: reported (26); read-out: Ki value of DCA for PDK; cited from earlier work
[2] = clinical use, reference (24); cited from earlier work
mammalian LDH = settings: reference (47); read-out: Ki value of oxamate for mammalian LDH; cited from earlier work
[3] = tested on: nasopharyngeal carcinoma cells / normal nasopharyngeal epithelial cells; settings: reference (44); cited from earlier work
[4] = reference (44); cited from earlier work

| SMILES | tumor's response to CRT (tumor volume, FIG. 18) [1] | effectiveness of DCA versus oxamate in improving response to CRT ([1]; FIG. 18, DCA 6 mg/mouse, with CRT) | colony size (FIG. 4B) (E6E7/Ras MTE cells) | lactate production (culture medium, FIG. 5) (E6E7/Ras cells) | pKi (PDK) | clinical safety and tolerability [2] | pKi (mammalian LDH) | nasopharyngeal carcinoma cell proliferation in vitro and in vivo [3] | toxicity to normal nasopharyngeal epithelial cells in vitro [3] | tolerability in mice [4] |
| --- | --- | --- | --- | --- | --- | --- | --- | --- | --- | --- |
| O=C([O-])C(Cl)Cl.[Na+] [DCA, dichloroacetic acid sodium salt, reference compound] | improved tumor's response to CRT | more effective than oxamate | approximately equal reductions in colony size | reduces lactate production but to a lesser extent than the prodrugs | 3.60 to 5.00 | safe and well tolerated with relatively modest toxicities |  |  |  |  |
| NC(=O)C(=O)O [oxamate, oxamic acid sodium salt] | improved tumor's response to CRT |  |  |  |  |  | 3.94 | significant suppression | minimum toxicity | well tolerated |
